The source made the active and inactive calls. The calls are words filed in the database; no cut-off is given here.
Legend:
[1] = biological target: Phosphatidylinositol 4,5-bisphosphate 3-kinase catalytic subunit alpha isoform (Homo sapiens, UniProt P42336); experiment: Inhibition of PI3Kalpha (unknown origin) using PIP2 as substrate after 1 hr by Kinase-Glo luminescent kinase assay
HepG2 [2] = experiment: Antiproliferative activity against human HepG2 cells at 1 to 50 uM after 48 hrs by MTT assay; format: functional, cell-based
[3] = biological target: T1, Protein cereblon-pI3K (Homo sapiens) (UniProt P42338+P48736+P42336+O00329+Q96SW2); experiment: Protac activity against PI3K/E3 ligase in human HepG2 cells assessed as reduction in Akt phosphorylation at Ser-473 residue in human HepG2 cells after 24 hrs by Western blot analysis; format: cell-based
[4] = biological target: T1, Protein cereblon-pI3K (Homo sapiens); experiment: Protac activity against PI3K/E3 ligase in human HepG2 cells assessed as induction of p110alpha protein degradation at 10 uM in human HepG2 cells by Western blot analysis; format: cell-based
[5] = biological target: T1, Protein cereblon-pI3K (Homo sapiens); experiment: Protac activity against PI3K/E3 ligase in human HepG2 cells assessed as reduction in cyclin D1 protein level at 10 uM in human HepG2 cells by Western blot analysis; format: cell-based; conditions: TDE = time-dependent effect
HepG2 [6] = experiment: Antiproliferative activity against human HepG2 cells assessed as inhibition of cell proliferation at 10 uM after 48 hrs by MTT assay; format: functional; conditions: HepG2, 48 h
[7] = biological target: T1, Protein cereblon-pI3K (Homo sapiens); experiment: Protac activity against PI3K/E3 ligase in human HepG2 cells assessed as reduction in phosphorylated GSK3beta protein level at 10 uM in human HepG2 cells by Western blot analysis; format: cell-based; conditions: TDE = time-dependent effect
[8] = biological target: T1, Protein cereblon-pI3K (Homo sapiens); experiment: Protac activity against PI3K/E3 ligase in human HepG2 cells assessed as reduction in phosphorylated S6K protein level in human HepG2 cells after 24 hrs by Western blot analysis; format: cell-based
[9] = biological target: T1, Protein cereblon-pI3K (Homo sapiens); experiment: Protac activity against PI3K/E3 ligase in human HepG2 cells assessed as increase in conversion of LC3B-1 to LC3B-2 at 10 uM after 3 hrs in human HepG2 cells by Western blot analysis; format: cell-based
HepG2 [10] = experiment: Cell cycle arrest in human HepG2 cells assessed as accumulation at S phase at 10 uM after 24 hrs by flow cytometric analysis (reference value: 3.77%); format: functional
HepG2 [11] = experiment: Induction of apoptosis in human HepG2 cells assessed as necrotic cells at 10 uM after 24 hrs by Annexin V-FITC/propidium iodide staining-based flow cytometric analysis (reference value: 0.052%); format: functional
HepG2 [12] = experiment: Induction of apoptosis in human HepG2 cells assessed as viable cells at 10 uM after 24 hrs by Annexin V-FITC/propidium iodide staining-based flow cytometric analysis (reference value: 90.1%); format: functional; conditions: HepG2, 24 h, read-out: Activity
HepG2 [13] = experiment: Cell cycle arrest in human HepG2 cells assessed as accumulation at S phase at 25 uM after 24 hrs by flow cytometric analysis (reference value: 3.77%); format: functional
HepG2 [14] = experiment: Induction of apoptosis in human HepG2 cells assessed as necrotic cells at 5 uM after 24 hrs by Annexin V-FITC/propidium iodide staining-based flow cytometric analysis (reference value: 0.052%); format: functional
HepG2 [15] = experiment: Cell cycle arrest in human HepG2 cells assessed as accumulation at G2/M phase at 10 uM after 24 hrs by flow cytometric analysis (reference value: 9.25%); format: functional
HepG2 [16] = experiment: Induction of apoptosis in human HepG2 cells assessed as early apoptotic cells at 5 uM after 24 hrs by Annexin V-FITC/propidium iodide staining-based flow cytometric analysis (reference value: 2.46%); format: functional
HepG2 [17] = experiment: Induction of apoptosis in human HepG2 cells assessed as late apoptotic cells at 5 uM after 24 hrs by Annexin V-FITC/propidium iodide staining-based flow cytometric analysis (reference value: 7.34%); format: functional
HepG2 [18] = experiment: Cell cycle arrest in human HepG2 cells assessed as accumulation at G0/G1 phase at 5 uM after 24 hrs by flow cytometric analysis (reference value: 86.6%); format: functional
HepG2 [19] = experiment: Cell cycle arrest in human HepG2 cells assessed as accumulation at G2/M phase at 5 uM after 24 hrs by flow cytometric analysis (reference value: 9.25%); format: functional
HepG2 [20] = experiment: Cell cycle arrest in human HepG2 cells assessed as accumulation at G0/G1 phase at 10 uM after 24 hrs by flow cytometric analysis (reference value: 86.6%); format: functional
HepG2 [21] = experiment: Induction of apoptosis in human HepG2 cells assessed as viable cells at 25 uM after 24 hrs by Annexin V-FITC/propidium iodide staining-based flow cytometric analysis (reference value: 90.1%); format: functional; conditions: HepG2, 24 h, read-out: Activity
HepG2 [22] = experiment: Cell cycle arrest in human HepG2 cells assessed as accumulation at G0/G1 phase at 25 uM after 24 hrs by flow cytometric analysis (reference value: 86.6%); format: functional
HepG2 [23] = experiment: Induction of apoptosis in human HepG2 cells assessed as late apoptotic cells at 10 uM after 24 hrs by Annexin V-FITC/propidium iodide staining-based flow cytometric analysis (reference value: 7.34%); format: functional
HepG2 [24] = experiment: Induction of apoptosis in human HepG2 cells assessed as early apoptotic cells at 25 uM after 24 hrs by Annexin V-FITC/propidium iodide staining-based flow cytometric analysis (reference value: 2.46%); format: functional
HepG2 [25] = experiment: Induction of apoptosis in human HepG2 cells assessed as late apoptotic cells at 25 uM after 24 hrs by Annexin V-FITC/propidium iodide staining-based flow cytometric analysis (reference value: 7.34%); format: functional
HepG2 [26] = experiment: Induction of apoptosis in human HepG2 cells assessed as viable cells at 5 uM after 24 hrs by Annexin V-FITC/propidium iodide staining-based flow cytometric analysis (reference value: 90.1%); format: functional; conditions: HepG2, 24 h, read-out: Activity
HepG2 [27] = experiment: Cell cycle arrest in human HepG2 cells assessed as accumulation at G2/M phase at 25 uM after 24 hrs by flow cytometric analysis (reference value: 9.25%); format: functional
HepG2 [28] = experiment: Induction of autophagy in GFP-LC3 transfected human HepG2 cells assessed as increase in LC3 puncta at 10 uM after 6 hrs by DAPI staining-based fluorescence microscopy; format: functional, cell-based
HepG2 [29] = experiment: Induction of apoptosis in human HepG2 cells assessed as necrotic cells at 25 uM after 24 hrs by Annexin V-FITC/propidium iodide staining-based flow cytometric analysis (reference value: 0.052%); format: functional
HepG2 [30] = experiment: Cell cycle arrest in human HepG2 cells assessed as accumulation at S phase at 5 uM after 24 hrs by flow cytometric analysis (reference value: 3.77%); format: functional
HepG2 [31] = experiment: Induction of apoptosis in human HepG2 cells assessed as early apoptotic cells at 10 uM after 24 hrs by Annexin V-FITC/propidium iodide staining-based flow cytometric analysis (reference value: 2.46%); format: functional

O=C(CCC(=O)NCCCC(=O)Nc1cccc2c1C(=O)N(C1CCC(=O)NC1=O)C2=O)NCCCCCC(=O)N1CCN(c2nc(N3CCOCC3)nc(-n3c(C(F)F)nc4ccccc43)n2)CC1 (stereo unspecified)
IC50 [1]: 0.038 µM | Activity (HepG2 [2]): inactive

O=C1CCC(N2C(=O)c3cccc(NC(=O)CCCCCN4CCN(c5nc(N6CCOCC6)nc(-n6c(C(F)F)nc7ccccc76)n5)CC4)c3C2=O)C(=O)N1 (stereo unspecified)
IC50 [1]: 2.85 µM

O=C1CCC(N2C(=O)c3cccc(NC(=O)CCCCCn4cc(CN5CCN(c6nc(N7CCOCC7)nc(-n7c(C(F)F)nc8ccccc87)n6)CC5)nn4)c3C2=O)C(=O)N1 (stereo unspecified)
Activity [3]: Dose-dependent effect | IC50 [1]: 0.086 µM | Activity [4]: < 50% | Activity [5]: Tde | inhibition at 10 µM (HepG2 [6]): ≤ 50% | Activity (HepG2 [2]): Dose-dependent effect | Activity [7]: Tde | Activity [8]: Dose-dependent effect | Activity [9]: Active

O=C(CCC(=O)N1CCN(c2nc(N3CCOCC3)nc(-n3c(C(F)F)nc4ccccc43)n2)CC1)NCCCC(=O)Nc1cccc2c1C(=O)N(C1CCC(=O)NC1=O)C2=O (stereo unspecified)
Activity [3]: Dose-dependent effect | IC50 [1]: 0.018 µM | Activity [4]: < 50% | Activity [5]: Tde | inhibition at 10 µM (HepG2 [6]): ≤ 50% | Activity (HepG2 [2]): Dose-dependent effect | Activity [7]: Tde | Activity [8]: Dose-dependent effect | Activity [9]: Active

O=C1CCC(N2C(=O)c3cccc(NC(=O)CCCn4cc(CN5CCN(c6nc(N7CCOCC7)nc(-n7c(C(F)F)nc8ccccc87)n6)CC5)nn4)c3C2=O)C(=O)N1 (stereo unspecified)
Activity [3]: Dose-dependent effect | IC50 [1]: 0.09 µM | Activity [4]: < 50% | Activity [5]: Tde | inhibition at 10 µM (HepG2 [6]): ≤ 50% | Activity (HepG2 [2]): Dose-dependent effect | Activity [7]: Tde | Activity [8]: Dose-dependent effect | Activity [9]: Active

O=C(CCC(=O)N1CCN(c2nc(N3CCOCC3)nc(-n3c(C(F)F)nc4ccccc43)n2)CC1)NCCCCCC(=O)Nc1cccc2c1C(=O)N(C1CCC(=O)NC1=O)C2=O (stereo unspecified)
Activity (HepG2 [10]): 3.49% | Activity (HepG2 [11]): 0.4% | viability at 10 µM (HepG2 [12]): 65.6% | Activity (HepG2 [13]): 5.73% | Activity (HepG2 [14]): 0.152% | Activity (HepG2 [15]): 10.5% | Activity [3]: Dose-dependent effect | Activity (HepG2 [16]): 10.3% | IC50 [1]: 0.024 µM | Activity (HepG2 [17]): 17.9% | Activity [4]: < 50% | Activity (HepG2 [18]): 85.6% | Activity (HepG2 [19]): 9.99% | Activity (HepG2 [20]): 85.6% | viability at 25 µM (HepG2 [21]): 68.9% | Activity (HepG2 [22]): 81.3% | Activity (HepG2 [23]): 19.3% | Activity [5]: Tde | Activity (HepG2 [24]): 10.3% | Activity (HepG2 [25]): 20.4% | inhibition at 10 µM (HepG2 [6]): ≤ 50% | viability at 5 µM (HepG2 [26]): 71.7% | Activity (HepG2 [2]): Dose-dependent effect | Activity (HepG2 [27]): 12.9% | Activity [7]: Tde | Activity (HepG2 [28]): Active | Activity [8]: Dose-dependent effect | Activity [9]: Active | Activity (HepG2 [29]): 0.426% | Activity (HepG2 [30]): 3.79% | Activity (HepG2 [31]): 14.7%

Reference: ChEMBL document CHEMBL4152193, “Phthalimide conjugations for the degradation of oncogenic PI3K” (Eur J Med Chem, 2018)
